Laboratory results reported in patent US20230235286A1, “MRNA TRANSFECTION OF IMMUNE CELLS” (Carisma Therapeutics Inc., priority 2020, published 2023).

B1: IFN-γ: recombinant human IFN-γ (peprotech) (protein, UniProt P01579 24-161, looked up)
Interferon gamma: QDPYVKEAENLKKYFNAGHSDVADNGTLFLGILKNWKEESDRKIMQSQIVSFYFKLFKNFKDDQSIQKSVETIKEDMNVKFFNSNKKKRDDFEKLTNYSVTDLNVQRKAIHELIQVMAELSPAAKTGKRKRSQMLFRG
B2: CD40L: Recombinant CD40 ligand (Peprotech) (protein, UniProt P29965 113-261, looked up)
CD40 ligand, soluble form: MQKGDQNPQIAAHVISEASSKTTSVLQWAEKGYYTMSNNLVTLENGKQLTVKRQGLYYIYAQVTFCSNREASSQAPFIASLCLKSPGRFERILLRAANTHSSAKPCGQQSIHLGGVFELQPGASVFVNVTDPSQVSHGTGFTSFGLLKL

Tests used:
human macrophages [1] = test: CAR expression on macrophages by flow cytometry; format: cell-based; conditions: two days after transfection, 20 ng/mL IFNs for 24 hours
human macrophages [2] = test: M1/M2 marker expression on CAR macrophages by flow cytometry; format: cell-based; conditions: mRNA transfected CAR macrophages
Excerpt: IFN containing media was washed off after the indicated time. IFN-primed CAR macrophages were used for further analysis.
(§1) M1/M2 markers on primary human macrophages were detected with the following panel: Anti-CD11B PE (Biolegend, 301306), Anti-CD80 BV605 (Biolegend, 305225), Anti-CD86 BV711 (Biolegend, 305440), Anti CD206 BV421 (Biolegend, 321126), Anti CD163 APC-CY7 (Biolegend, 333622), anti HLA-DR BV785 (Biolegend, 307642), Anti HLA ABC PE/CY7 (Biolegend, 311430) and Live/Dead Fixable Aqua Dead Cell Stain Kit. Cytokine production (IL12, IFN-γ, TNF-α, IL6, IL8, IL1b, MCP-1, IL10, IL4, IL13, and other human cytokines) was evaluated in supernatant collected from macrophages (control or CAR) treated as described below using the MSD instrument per manufacturers recommendations (Meso Scale Discovery). In some cases, macrophages were co-cultured with antigen-bearing target cells at indicated effector to target ratios.
(§2) Human macrophages were electroporated with HER2 CAR mRNA comprising m6AGCap1 and PsU modifications. Cells were cultured with cytokines that induce an M1 phenotype such as IFN-alpha, IFN-beta, IFN-gamma, IFN-gamma plus lipopolysaccharide (LPS), TNF-alpha, IL-6 or a STING ligand (STING-L) for up to 48 hours and then cytokines were washed off and fresh media was added. CAR expression and M1 marker expression were measured on days 2 and 7 after transfection. Fluorescent labeled HER2+ breast cancer cells (CRL2351) were co-cultured with HER2 CAR macrophages two days after the macrophages were transfected. Cancer cell growth was monitored via its fluorescence on an Incucyte live imaging microscope every four hours. The Effector (CAR macrophage) to Target (cancer cell) ratio was 5:1.
Human macrophages were electroporated with 300 nM CAR mRNA comprising m6AGCap1 and PsU modifications. Cells were cultured with 20 ng/mL IFNs for 24 hours and then the cells were washed to remove cytokines. CAR expression was detected by Flow Cytometry (Attune) on day 2 after transfection. Cells were then co-cultured with a Nuc-Light labeled, HER2+ breast cancer cell line (CRL2351) at the Effector to Target ratio of 3:1. Cancer cell growth was monitored via its fluorescence on an Incucyte live imaging microscope. CAR expression and M1 markers in macrophages were detected by Flow Cytometry (Attune) on day 7 after transfection.

human macrophages [3] = test: mCherry expression in transfected macrophages with IFN-γ, sunitinib or ABCE1 (Incucyte); format: cell-based; conditions: cultured one day with different doses of IFN-γ
Description: The transfection efficiency, persistence of expression, and intensity of expression of the fluorescent reporter gene mCherry in human monocytes or macrophages was evaluated using real time live microscopy on the Incucyte (Sartorius) for the indicated period of time.
Macrophages were treated with 0-10 µM sunitinib (an RNAse-L inhibitor) for 2 hours prior to mRNA electroporation or transfection. The level of expression and persistence of expression of the encoded transgene was assessed using methods described above.
Human macrophages were transfected with mCherry mRNA comprising m6AGCap1 and PsU or N1mPsU modifications and were then cultured for one day with different doses of IFN-γ. mCherry expression was monitored on an Incucyte live imaging microscope.
In order to determine whether an RNaseL inhibitor could rescue IFN-γ-induced instability of transfected mRNA, human macrophages were treated with 1 µM sunitinib (an RNaseL inhibitor) two hours prior to the transfection of mCherry mRNA comprising m6AGCap1 and PsU modifications. Transfected cells were then cultured for one day with different dosages of IFN-γ. mCherry expression was monitored on an Incucyte live imaging microscope.
The effect of another RNaseL inhibitor (RLI or ABCE1) was also tested to further validate the concept. […]

human macrophages [4] = test: Cytokine secretion of CAR macrophages co-cultured with HER2+ breast cancer cells (MSD); format: cell-based; conditions: supernatant 48 hours after co-culture, E:T 3:1
Excerpt: as §1
Human macrophages were electroporated with 150 nM HER2 CAR mRNA comprising m6AGCap1 and PsU modifications. HER2+ breast cancer cells (CRL2351) were co-cultured with CAR macrophages after the macrophages were transfected with the CAR mRNA at an Effector (CAR macrophage) to Target (cancer cell) ratio of 3:1. Supernatant was collected 48 hours after the cancer cells and macrophages were co-cultured and cytokine levels were measured using a Meso Scale Discovery (MSD) instrument.

human macrophages [5] = test: Viability of macrophages electroporated or transfected with CAR mRNA (FACS); format: cell-based; conditions: two days after transfection, 20 ng/mL IFNs for 24 hours
Description: as §2, with “The Effector (CAR macrophage) to Target (cancer cell) ratio was 5:1.” left out
Five different mRNA modifications were also tested to determine if interferon treatment differentially affected macrophages transfected with mRNA comprising different modifications. […] CAR expression and M1 markers were detected by Flow Cytometry (Attune) on day four after electroporation. […] Cancer cell growth was monitored via its fluorescence on an Incucyte live imaging microscope every four hours.
Human macrophages were electroporated with 300 nM CAR mRNA comprising m6AGCap1 and PsU modifications. […] CAR expression was detected by Flow Cytometry (Attune) on day 2 after transfection. […] Cancer cell growth was monitored via its fluorescence on an Incucyte live imaging microscope. […]

[6] = tested on: CRL-2351 cells expressing nuclear GFP; test: Tumor killing by macrophages and CAR macrophages primed on plates coated with CD40L, 4-1BB or 4-1BBL; format: cell-based, human; conditions: plate-coated protein
Description: (§3) To generate Her2-Zeta CAR expressing macrophages, primary human macrophages were suspended in EP buffer (MaxCyte) containing 300 nM mRNA (TriLink) at a concentration of 90×10^6 cells/mL. 100 µL of cell mixture was added to an electroporation cassette (OC 100x2; MaxCyte) and electroporated using the Experimental T cell 1 setting. Cells were removed from the cassette, plated in 3 mL of TexMACS media (Miltenyi Biotech) containing 20% FBS (Gibco) on UpCell plates (Thermo Scientific), and incubated overnight at 37° C. and 5% CO2.
(§4) Recombinant CD40 ligand (Peprotech), 4-1BB ligand (Enzo Life Sciences), and 4-1BB receptor (Peprotech) were re-suspended in molecular grade water to a stock concentration of 100 µg/mL. Stock solution was then used to create working solutions in PBS ranging from 2 -0.002 µg/mL. 100 µL of working solution was added to wells in a 96-well plate and left at room temperature for 4 hours.
Plates were removed from the incubator and left at room temperature for 30 minutes. Cells were detached from plate, counted using the NC-200 automated cell counter (Chemomtech), and re-suspended in TexMACS media with 10% FBS. […] Cell lysis was detected using the Incucyte (Essen Bioscience). Tumor cell death was calculated by integrated GFP intensity per well relative to time 0.

[7] = tested on: primary human macrophages; test: M1 and M2 marker expression after priming with CD40L, 4-1BB or 4-1BBL; format: cell-based; conditions: macrophages transfected with CAR mRNA, 3 days
Description: as §3, §4
For detection of cell surface proteins, macrophages were plated onto wells coated with agonist molecules in a final volume of 200 µL TexMACS media + 10% FBS + 10 ng/mL GM-CSF and incubated for 3 days at 37° C. and 5% CO2. Cells were incubated in 300 µL Accutase (Sigma) for 30 min and transferred to 96-well round bottom plate for staining. Cells were incubated in FACS buffer containing 20 µg/mL Her2-His for 20 min at RT, followed by incubation in Human TruStain FcX for 10 min at RT. […]

Molecule | M1 phenotype based on CD86 expression (human macrophages [2]) | M2 markers based on CD163 expression (human macrophages [2]) | cytokine secretion (human macrophages [4]) | also measured
IFN-γ: recombinant human IFN-γ (peprotech) | induction of an M1 phenotype | reduction of M2 markers | increased secretion of the cytokines IL-6, IL-8 and TNFα | CAR expression (human macrophages [1]): very high except in macrophages that had been treated with IFN-γ; mCherry mRNA expression (human macrophages [3]): reduced mCherry mRNA expression
IFN-α | induction of an M1 phenotype | reduction of M2 markers | increased secretion of the cytokines IL-6, IL-8 and TNFα | 
B1 |  |  |  | CAR macrophage viability (human macrophages [5]): very high except in macrophages that had been treated with IFN-γ
B2 |  |  |  | tumor killing ability of macrophages and CAR macrophages [6]: significantly improved the tumor killing ability; M1 phenotype (M1 and M2 markers) [7]: induced an M1 phenotype
